pIC50: −log10 of the molar value.
Legend:
[1] = target: T1, Aurora kinase C (Homo sapiens) (UniProt Q9UQB9); experiment: Inhibition of human Aurora-C assessed as residual activity at 1 uM relative to control
T1 sequence (whole entry): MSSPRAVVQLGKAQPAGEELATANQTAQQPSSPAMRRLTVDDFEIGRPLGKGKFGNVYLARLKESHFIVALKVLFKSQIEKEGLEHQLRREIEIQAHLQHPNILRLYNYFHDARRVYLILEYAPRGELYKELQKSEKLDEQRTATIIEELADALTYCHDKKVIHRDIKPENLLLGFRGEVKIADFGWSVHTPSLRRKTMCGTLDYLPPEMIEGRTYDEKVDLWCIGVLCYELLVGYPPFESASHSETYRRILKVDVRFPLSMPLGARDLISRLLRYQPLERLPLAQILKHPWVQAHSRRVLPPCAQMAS

[2] = target: Tyrosine-protein kinase JAK2 (Homo sapiens) (UniProt O60674); experiment: Inhibition of human JAK2 assessed as residual activity at 1 uM relative to control
[3] = target: Serine/threonine-protein kinase MARK2 (Homo sapiens) (UniProt Q7KZI7); experiment: Inhibition of human PAR-1Balpha assessed as residual activity at 1 uM relative to control
[4] = target: T2, Eukaryotic elongation factor 2 kinase (Homo sapiens) (UniProt O00418); experiment: Inhibition of human eEF-2K assessed as residual activity at 1 uM relative to control
T2 sequence (whole entry): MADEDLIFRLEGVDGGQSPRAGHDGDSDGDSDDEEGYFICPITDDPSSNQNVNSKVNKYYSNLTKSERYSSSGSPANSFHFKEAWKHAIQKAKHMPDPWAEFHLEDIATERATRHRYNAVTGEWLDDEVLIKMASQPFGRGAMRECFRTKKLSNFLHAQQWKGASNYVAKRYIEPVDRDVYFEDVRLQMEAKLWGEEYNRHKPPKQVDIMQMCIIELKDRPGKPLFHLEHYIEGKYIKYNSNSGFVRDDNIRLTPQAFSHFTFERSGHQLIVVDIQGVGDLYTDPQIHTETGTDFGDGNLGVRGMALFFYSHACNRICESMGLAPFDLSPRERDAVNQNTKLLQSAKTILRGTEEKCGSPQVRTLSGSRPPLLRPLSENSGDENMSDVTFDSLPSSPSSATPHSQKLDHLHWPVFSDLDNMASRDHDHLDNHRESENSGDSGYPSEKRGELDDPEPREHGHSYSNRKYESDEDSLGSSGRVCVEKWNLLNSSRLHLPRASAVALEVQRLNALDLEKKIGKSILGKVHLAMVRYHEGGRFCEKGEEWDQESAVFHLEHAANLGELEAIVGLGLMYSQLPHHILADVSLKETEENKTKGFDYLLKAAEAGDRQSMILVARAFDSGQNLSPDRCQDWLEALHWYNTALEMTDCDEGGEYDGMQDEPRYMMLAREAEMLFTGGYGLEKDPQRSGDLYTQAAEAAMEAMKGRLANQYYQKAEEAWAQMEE

[5] = target: T3, Serine/threonine-protein kinase TBK1 (Homo sapiens, UniProt Q9UHD2); experiment: Inhibition of TBK1 in HEK293 cells after 4.5 hrs by ISRE-luciferase reporter gene assay in presence of poly I:C; format: cell-based
T3 sequence (Q9UHD2 whole entry): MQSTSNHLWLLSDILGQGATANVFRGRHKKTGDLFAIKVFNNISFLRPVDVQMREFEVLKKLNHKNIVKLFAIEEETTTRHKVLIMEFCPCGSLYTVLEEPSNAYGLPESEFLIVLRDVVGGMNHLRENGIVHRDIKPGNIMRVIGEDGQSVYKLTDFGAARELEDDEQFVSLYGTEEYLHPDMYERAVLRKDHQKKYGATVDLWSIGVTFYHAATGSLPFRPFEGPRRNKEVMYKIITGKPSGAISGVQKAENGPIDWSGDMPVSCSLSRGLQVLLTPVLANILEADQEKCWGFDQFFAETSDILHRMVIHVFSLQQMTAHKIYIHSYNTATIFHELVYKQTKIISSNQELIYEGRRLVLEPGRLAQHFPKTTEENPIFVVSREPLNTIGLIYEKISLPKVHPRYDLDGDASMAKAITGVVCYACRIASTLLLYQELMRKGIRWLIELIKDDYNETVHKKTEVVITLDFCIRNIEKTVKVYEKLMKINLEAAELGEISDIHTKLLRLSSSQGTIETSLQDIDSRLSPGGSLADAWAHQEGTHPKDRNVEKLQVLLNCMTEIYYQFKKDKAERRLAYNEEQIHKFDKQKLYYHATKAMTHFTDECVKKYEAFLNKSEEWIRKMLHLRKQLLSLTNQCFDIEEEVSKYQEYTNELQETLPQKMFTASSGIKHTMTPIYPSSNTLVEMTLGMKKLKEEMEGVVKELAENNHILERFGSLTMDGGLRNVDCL

[6] = target: Phosphatidylinositol 4-phosphate 5-kinase type-1 alpha (Homo sapiens) (UniProt Q99755); experiment: Inhibition of human PIP5K1alpha assessed as residual activity at 1 uM relative to control
[7] = target: T4, Inhibitor of nuclear factor kappa-B kinase subunit beta (Homo sapiens) (UniProt O14920); experiment: Inhibition of human IKKbeta assessed as residual activity at 1 uM relative to control
T4 sequence (whole entry): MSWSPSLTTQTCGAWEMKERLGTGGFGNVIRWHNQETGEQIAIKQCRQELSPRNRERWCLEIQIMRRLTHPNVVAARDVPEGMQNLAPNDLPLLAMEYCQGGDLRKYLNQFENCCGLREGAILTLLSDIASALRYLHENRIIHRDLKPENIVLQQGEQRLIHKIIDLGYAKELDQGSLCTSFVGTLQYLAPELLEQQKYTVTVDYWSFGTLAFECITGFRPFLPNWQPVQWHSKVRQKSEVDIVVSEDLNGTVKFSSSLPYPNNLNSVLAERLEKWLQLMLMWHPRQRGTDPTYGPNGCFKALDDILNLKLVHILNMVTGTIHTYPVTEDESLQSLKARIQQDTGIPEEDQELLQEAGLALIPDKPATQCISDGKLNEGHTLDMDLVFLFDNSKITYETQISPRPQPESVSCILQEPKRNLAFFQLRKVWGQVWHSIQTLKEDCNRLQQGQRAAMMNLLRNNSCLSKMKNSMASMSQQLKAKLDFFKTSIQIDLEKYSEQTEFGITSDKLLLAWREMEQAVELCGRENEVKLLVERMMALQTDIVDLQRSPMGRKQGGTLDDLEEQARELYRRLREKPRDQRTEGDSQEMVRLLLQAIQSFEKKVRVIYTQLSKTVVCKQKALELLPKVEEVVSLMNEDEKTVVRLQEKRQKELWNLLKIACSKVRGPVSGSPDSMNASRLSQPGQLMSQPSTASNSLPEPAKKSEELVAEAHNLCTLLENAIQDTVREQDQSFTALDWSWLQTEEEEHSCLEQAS

[8] = target: PI3-kinase p110-delta/p85-alpha (Homo sapiens) (UniProt P27986+O00329); experiment: Inhibition of human PI3K p110delta/p85alpha assessed as residual activity at 1 uM relative to control; format: protein-complex assay
[9] = target: Vascular endothelial growth factor receptor 2 (Homo sapiens) (UniProt P35968); experiment: Inhibition of human KDR assessed as residual activity at 1 uM relative to control
Vascular endothelial growth factor receptor 2 (Homo sapiens), sequence (P35968 whole entry): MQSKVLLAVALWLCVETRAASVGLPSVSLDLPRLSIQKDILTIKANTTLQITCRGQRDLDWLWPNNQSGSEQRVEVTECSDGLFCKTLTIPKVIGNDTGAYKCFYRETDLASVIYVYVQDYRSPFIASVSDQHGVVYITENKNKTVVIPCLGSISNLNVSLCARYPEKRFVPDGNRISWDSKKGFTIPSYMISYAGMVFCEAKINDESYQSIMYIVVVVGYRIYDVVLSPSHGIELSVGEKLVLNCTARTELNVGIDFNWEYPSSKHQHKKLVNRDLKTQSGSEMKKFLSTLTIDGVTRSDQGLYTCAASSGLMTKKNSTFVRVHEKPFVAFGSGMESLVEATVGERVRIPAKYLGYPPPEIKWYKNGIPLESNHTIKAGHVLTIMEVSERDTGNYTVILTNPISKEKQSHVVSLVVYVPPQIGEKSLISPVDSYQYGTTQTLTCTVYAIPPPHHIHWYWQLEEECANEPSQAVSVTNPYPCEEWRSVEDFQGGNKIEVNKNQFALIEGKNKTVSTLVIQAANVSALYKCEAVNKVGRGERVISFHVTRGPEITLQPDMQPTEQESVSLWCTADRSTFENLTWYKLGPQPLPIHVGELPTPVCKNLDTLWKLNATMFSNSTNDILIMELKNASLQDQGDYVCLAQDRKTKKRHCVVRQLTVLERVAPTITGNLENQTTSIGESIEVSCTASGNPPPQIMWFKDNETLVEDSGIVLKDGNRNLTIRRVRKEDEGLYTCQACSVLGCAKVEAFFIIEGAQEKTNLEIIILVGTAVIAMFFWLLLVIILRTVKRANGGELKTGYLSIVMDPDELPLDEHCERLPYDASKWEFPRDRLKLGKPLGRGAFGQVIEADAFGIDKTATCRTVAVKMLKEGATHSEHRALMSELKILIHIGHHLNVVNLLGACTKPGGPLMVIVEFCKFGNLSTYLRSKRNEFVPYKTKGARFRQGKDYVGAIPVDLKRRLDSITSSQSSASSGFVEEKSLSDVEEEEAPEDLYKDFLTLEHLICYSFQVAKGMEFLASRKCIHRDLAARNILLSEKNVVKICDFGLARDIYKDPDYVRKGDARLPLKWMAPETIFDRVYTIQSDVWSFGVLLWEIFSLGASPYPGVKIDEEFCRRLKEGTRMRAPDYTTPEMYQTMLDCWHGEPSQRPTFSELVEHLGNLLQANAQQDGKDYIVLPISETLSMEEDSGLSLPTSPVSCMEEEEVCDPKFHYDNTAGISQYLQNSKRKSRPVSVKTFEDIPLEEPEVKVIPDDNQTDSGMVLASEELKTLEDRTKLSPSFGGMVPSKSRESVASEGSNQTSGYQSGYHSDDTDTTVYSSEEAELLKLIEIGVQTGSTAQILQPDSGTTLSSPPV

Phosphatidylinositol 4-phosphate 5-kinase type-1 alpha (Homo sapiens), sequence (Q99755 whole entry): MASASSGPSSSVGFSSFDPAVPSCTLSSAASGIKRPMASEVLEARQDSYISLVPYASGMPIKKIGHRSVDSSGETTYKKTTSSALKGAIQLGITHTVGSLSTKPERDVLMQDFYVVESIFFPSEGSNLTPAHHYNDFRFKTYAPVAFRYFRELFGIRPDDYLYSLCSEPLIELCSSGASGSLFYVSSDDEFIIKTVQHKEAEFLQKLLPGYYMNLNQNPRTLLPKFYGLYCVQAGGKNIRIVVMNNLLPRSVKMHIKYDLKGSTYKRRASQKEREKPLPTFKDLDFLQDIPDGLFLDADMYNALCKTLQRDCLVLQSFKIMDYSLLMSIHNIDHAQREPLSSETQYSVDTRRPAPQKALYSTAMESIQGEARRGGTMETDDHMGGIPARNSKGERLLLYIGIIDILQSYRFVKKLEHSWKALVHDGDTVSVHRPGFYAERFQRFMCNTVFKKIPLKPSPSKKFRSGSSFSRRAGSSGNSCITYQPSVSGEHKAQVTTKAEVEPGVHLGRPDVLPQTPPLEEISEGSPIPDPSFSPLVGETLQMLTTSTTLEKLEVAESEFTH
Serine/threonine-protein kinase MARK2 (Homo sapiens), sequence (Q7KZI7 whole entry): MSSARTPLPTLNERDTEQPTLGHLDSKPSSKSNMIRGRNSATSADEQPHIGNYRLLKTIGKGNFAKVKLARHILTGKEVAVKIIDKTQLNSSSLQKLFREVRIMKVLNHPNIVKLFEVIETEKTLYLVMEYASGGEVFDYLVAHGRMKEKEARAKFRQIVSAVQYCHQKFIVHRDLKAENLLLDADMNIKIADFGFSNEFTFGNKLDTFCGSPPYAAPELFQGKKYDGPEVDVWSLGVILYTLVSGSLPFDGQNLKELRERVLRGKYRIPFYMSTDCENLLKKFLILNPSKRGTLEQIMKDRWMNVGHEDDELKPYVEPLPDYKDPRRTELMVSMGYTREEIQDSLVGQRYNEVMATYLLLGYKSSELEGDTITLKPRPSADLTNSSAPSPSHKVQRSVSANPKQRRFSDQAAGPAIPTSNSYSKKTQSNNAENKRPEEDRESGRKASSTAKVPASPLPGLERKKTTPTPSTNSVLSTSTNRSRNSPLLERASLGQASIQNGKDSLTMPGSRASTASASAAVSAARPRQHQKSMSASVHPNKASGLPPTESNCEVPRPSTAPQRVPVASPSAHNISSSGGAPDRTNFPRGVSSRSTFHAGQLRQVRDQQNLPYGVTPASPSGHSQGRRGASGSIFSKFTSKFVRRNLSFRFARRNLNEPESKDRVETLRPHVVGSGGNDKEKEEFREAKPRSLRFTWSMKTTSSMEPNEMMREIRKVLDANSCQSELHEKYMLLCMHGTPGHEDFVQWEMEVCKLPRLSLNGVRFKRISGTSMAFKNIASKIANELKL
Tyrosine-protein kinase JAK2 (Homo sapiens), sequence (O60674 whole entry): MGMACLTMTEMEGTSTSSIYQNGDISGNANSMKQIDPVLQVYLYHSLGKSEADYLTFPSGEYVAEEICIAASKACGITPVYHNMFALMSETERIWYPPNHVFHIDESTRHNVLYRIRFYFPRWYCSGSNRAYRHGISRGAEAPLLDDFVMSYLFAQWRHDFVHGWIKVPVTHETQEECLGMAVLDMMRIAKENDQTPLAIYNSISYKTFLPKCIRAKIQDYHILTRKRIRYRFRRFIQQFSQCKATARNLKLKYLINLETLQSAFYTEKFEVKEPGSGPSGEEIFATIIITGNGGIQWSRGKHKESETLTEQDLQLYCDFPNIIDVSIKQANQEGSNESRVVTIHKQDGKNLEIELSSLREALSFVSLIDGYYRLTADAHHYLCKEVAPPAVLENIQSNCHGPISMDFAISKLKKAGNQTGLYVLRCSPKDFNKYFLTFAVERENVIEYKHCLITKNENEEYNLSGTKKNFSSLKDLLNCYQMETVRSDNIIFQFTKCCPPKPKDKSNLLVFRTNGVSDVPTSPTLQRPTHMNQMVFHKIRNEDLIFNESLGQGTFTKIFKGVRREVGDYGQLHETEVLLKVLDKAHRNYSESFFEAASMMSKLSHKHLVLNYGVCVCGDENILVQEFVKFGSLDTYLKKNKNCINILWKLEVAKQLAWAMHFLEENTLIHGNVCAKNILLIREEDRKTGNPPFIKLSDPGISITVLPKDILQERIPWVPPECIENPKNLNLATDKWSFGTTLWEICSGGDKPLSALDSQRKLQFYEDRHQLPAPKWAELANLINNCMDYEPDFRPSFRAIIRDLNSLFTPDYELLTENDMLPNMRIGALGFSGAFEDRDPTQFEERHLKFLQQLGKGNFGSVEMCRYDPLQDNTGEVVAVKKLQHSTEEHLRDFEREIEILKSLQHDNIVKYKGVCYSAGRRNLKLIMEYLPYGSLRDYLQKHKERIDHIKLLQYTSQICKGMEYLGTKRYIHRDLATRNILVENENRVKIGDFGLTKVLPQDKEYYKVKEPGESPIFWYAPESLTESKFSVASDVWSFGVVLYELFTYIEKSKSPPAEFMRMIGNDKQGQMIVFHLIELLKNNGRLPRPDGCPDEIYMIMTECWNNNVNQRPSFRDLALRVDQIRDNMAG

Activity [1] [%] | Activity [2] [%] | Activity [3] [%] | Activity [4] [%] | pIC50 [5] | Activity [6] [%] | Activity [7] [%] | Activity [8] [%] | Activity [9] [%] | Compound
77 | 100 | 54 | 101 | 7.11 | 99 | 95 | 95 | 23 | COc1ccc(-c2nc3cc(-c4csc(C(=O)NCCC(C)C)c4)cnc3[nH]2)cc1
76 | 105 | 67 | 91 | 7.52 | 95 | 99 | 91 | 31 | COc1ccc(-c2nc3cc(-c4csc(C(=O)NCC(C)(C)C)c4)cnc3[nH]2)cc1
76 | 108 | 52 | 102 | 7.43 | 99 | 95 | 94 | 14 | COc1ccc(-c2nc3cc(-c4csc(C(=O)NCC(C)C)c4)cnc3[nH]2)cc1
